For test [1], the system named is Candida albicans. Kind of test: Bacteriological sterility: log reduction on cortical bone samples. Format: cell-based. As to conditions: single process step; for Microbiological Log Reductions T2: full cycle time; for Microbiological Log Reductions T1: one quarter cycle time. How it is done:
(§1) Bacteriological Sterility: Cortical bone samples were subjected to the previous steps of the process. […] The samples were assayed for bacteria activity, using standard assays.

For test [2], the system named is Pseudomonas aeruginosa. Described as above. Format: cell-based. The settings on record: single process step; for Microbiological Log Reductions T2: full cycle time; for Microbiological Log Reductions T1: one quarter cycle time. As to the method: as §1
For test [3], the system named is Escherichia coli. The test is described as above. Format: cell-based. As to conditions: single process step; for Microbiological Log Reductions T2: full cycle time; for Microbiological Log Reductions T1: one quarter cycle time. As to the method: as §1
For test [4], the system named is Staphylococcus epidermidis. Described as above. Format: cell-based. As to conditions: single process step; for Microbiological Log Reductions T2: full cycle time; for Microbiological Log Reductions T1: one quarter cycle time. How it is done: as §1
For test [5], the system named is Staphylococcus aureus. The test is described as above. Format: cell-based. The settings on record: single process step; for Microbiological Log Reductions T2: full cycle time; for Microbiological Log Reductions T1: one quarter cycle time. As to the method: as §1
In test [6] the test system is Bacillus subtilis (vegetative). The test is described as above. Format: cell-based. As to conditions: single process step; for Microbiological Log Reductions T2: full cycle time; for Microbiological Log Reductions T1: one quarter cycle time. How it is done:
as §1

The conditions of test [7]: 32% DBM in hyaluronan carrier, histology after 28 days. How it is done: Osteoinductivity: Cortical bone from three donors ([…], […], […]) was processed using a control process, 0 hour H2O2 with no sonication, a treatment process with 1 hour, 3 hours, and 5 hours of H2O2 treatment, and a negative control. After processing, the bone was ground, demineralized, and prepared into 32% Demineralized Bone Matrix in a hyaluronan carrier. Samples (15 mg) were implanted bilaterally into the hamstring muscle in an athymic mouse model, approved by the University of Medicine and Dentistry of New Jersey animal care and use committee. Implants were evaluated histologically after 28 days.

Like-named read-outs stand apart in the source and are kept apart here.

Take `OO` [H2O2, hydrogen peroxide]: the “Microbiological Log Reductions T2” value in test [1] was more than 5.10 Log; in test [2], more than 5.09 Log; in test [3], more than 5.19 Log; in test [4] it was more than 5.21 Log; in test [5], more than 5.93 Log; in test [6], more than 5.25 Log. Further, the “Microbiological Log Reductions T1” value in test [1] was more than 5.47 Log; in test [2], more than 5.09 Log; in test [3], more than 5.19 Log; in test [4] it was more than 5.21 Log; in test [5] it was more than 5.93 Log; in test [6] it was more than 5.25 Log. Besides, the “mean (SD) osteoinductivity score” value in test [7] (1 hour H2O2 treatment of bone) is 3.04 (0.97); in test [7] (3 hours H2O2 treatment of bone), 2.57 (1.36); in test [7] (5 hours H2O2 treatment of bone) it was 1.47 (1.10).
Consider Triton X-100, for which the “Microbiological Log Reductions T2” value in test [1] was 1.58 Log; in test [2], 3.40 Log; in test [3] it was 1.82 Log; in test [4] it was 0.41 Log; in test [5], 0.20 Log; in test [6] it was 2.41 Log. In addition, the “Microbiological Log Reductions T1” value was 1.78 Log in test [1]; 2.48 Log in test [2]; 0.03 Log in test [3]; 0.56 Log in test [4]; −0.59 Log in test [5]; 2.56 Log in test [6].

The record behind these values is patent US20040037735A1, “Allograft tissue purification process for cleaning bone” (priority 2002, published 2004).
